Legend:
[1] = test system: absorption of sodium from the intestinal lumen; test: Inhibition of intestinal sodium absorption: rat urinary sodium and fecal form 16 h post-dose; type: in vivo, Sprague-Dawley rats; settings: oral gavage 10 mg/kg; for FFS (fecal form score): 16 h post-dose, scale 1-5, group average; for response vs control in vivo at 10 mg/kg: urine 16 h post-dose, read-out: uNa Result, uNa (% of vehicle)
Experimental: Urinary sodium concentration and fecal form were measured to assess the ability of selected example compounds to inhibit the absorption of sodium from the intestinal lumen. Eight-week old Sprague-Dawley rats were purchased from Charles River Laboratories (Hollister, Calif.), were housed 2 per cage, and acclimated for at least 3 days before study initiation. Animals were fed Harlan Teklad Global 2018 rodent chow (Indianapolis, Ind.) and water ad libitum throughout the study and maintained in a standard light/dark cycle of 6 AM to 6 PM. On the day of the study, between 4 PM and 5 PM, a group of rats (n=6) were dosed via oral gavage with test compound or vehicle (water) at a volume of 10 mL/kg. After dose administration animals were placed in individual metabolic cages where they were also fed the same chow in meal form and watered ad libitum. At 16 h post-dose, the urine samples were collected and fecal form was assessed by two independent observations. Fecal forms were scored according to a common scale associated with increasing fecal water to the wettest observation in the cage's collection funnel (1, normal pellet; 2, pellet adhering to sides of collection funnel due to moisture; 3, loss of normal pellet shape; 4, complete loss of shape with a blotting pattern; 5, liquid fecal streams evident). A rat's fecal form score (FFS) was determined by averaging both observational scores for all rats within a group (n=6). The vehicle group average was 1. For urine samples, the volumes were determined gravimetrically and centrifuged at 3,600×g. The supernatants were diluted 100-fold in deionized Milli-Q water then filtered through a 0.2 μm GHP Pall AcroPrep filter plate (Pall Life Sciences, Ann Arbor, Mich.) prior to analysis by ion chromatography. Ten microliters of each filtered extract was injected onto a Dionex ICS-3000 ion chromatograph system (Dionex, Sunnyvale, Calif.). Cations were separated by an isocratic method using 25 mM methanesulfonic acid as the eluent on an IonPac CS12A 2 mm i.d.×250 mm, 8 μm particle size cation exchange column (Dionex). Sodium was quantified using standards prepared from a cation standard mix containing Li^+, Na^+, NH4^+, K^+, Mg^2+, and Ca^2+ (Dionex). The mean mass of sodium urinated for every group in the 16 h period was determined with the vehicle group usually urinating approximately 21 mg sodium. The urine Na (uNa) for rats in the test groups were expressed as a percentage of the vehicle mean and the means were compared to that of the vehicle group by utilizing a one-way analysis of variance coupled with a Dunnett's post hoc test.

human NHE3 = molecular target: T1, human NHE3 (Homo sapiens, UniProt P48764); test: Cell-based assay of NHE-3 activity (pre-incubation inhibition), human; settings: for IC50: PS120 fibroblasts stably expressing human NHE3, 10 min pre-incubation with 0-30 μM test compound, read-out: pIC50 (human Preincubation assay) (converted); for % inhibition (human Preincubation assay): PS120 fibroblasts stably expressing human NHE3, pre-incubation with test compound
T1 sequence (P48764 26-834): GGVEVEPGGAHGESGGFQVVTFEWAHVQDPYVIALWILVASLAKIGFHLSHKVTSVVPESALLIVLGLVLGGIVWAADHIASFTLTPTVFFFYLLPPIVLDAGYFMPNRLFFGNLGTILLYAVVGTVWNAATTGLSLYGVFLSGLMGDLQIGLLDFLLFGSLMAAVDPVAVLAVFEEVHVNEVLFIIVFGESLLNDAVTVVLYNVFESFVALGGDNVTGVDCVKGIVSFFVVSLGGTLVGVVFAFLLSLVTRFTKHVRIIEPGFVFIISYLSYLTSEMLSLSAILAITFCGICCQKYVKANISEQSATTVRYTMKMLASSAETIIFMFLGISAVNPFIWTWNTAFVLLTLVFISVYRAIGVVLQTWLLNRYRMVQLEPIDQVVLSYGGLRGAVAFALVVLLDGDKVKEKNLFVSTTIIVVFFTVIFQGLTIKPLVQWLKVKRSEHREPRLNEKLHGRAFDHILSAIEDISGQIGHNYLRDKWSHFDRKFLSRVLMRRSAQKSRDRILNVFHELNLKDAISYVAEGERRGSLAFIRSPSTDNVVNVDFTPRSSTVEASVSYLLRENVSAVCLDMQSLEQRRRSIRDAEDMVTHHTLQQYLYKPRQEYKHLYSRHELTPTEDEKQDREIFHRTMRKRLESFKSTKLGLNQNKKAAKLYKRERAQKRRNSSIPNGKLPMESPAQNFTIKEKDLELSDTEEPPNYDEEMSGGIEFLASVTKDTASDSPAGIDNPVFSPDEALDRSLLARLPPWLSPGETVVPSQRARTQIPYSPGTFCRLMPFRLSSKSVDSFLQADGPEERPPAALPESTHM
Experimental: Rat and human NHE-3-mediated Na^+-dependent H^+ antiport was measured using a modification of the pH sensitive dye method originally reported by Paradiso (Proc. Natl. Acad. Sci. USA. (1984) 81(23): 7436-7440, which is hereby incorporated by reference in its entirety). PS120 fibroblasts stably expressing human NHE3 were obtained from Mark Donowitz (Baltimore, Md.). Opossum kidney (OK) cells were obtained from the ATCC and propagated per their instructions. The rat NHE-3 gene (GenBank M85300) was introduced into OK cells via electroporation, and cells were seeded into 96 well plates and grown overnight. Medium was aspirated from the wells then incubated for 30 min at 37° C. with NH4Cl-HEPES buffer (20 mM NH4Cl, 80 mM NaCl, 50 mM HEPES, 5 mM KCl, 2 mM CaCl2, 1 mM MgCl2, pH 7.4) containing 5 μM BCECF-AM. Cells were washed once with Ammonium free, Nat-free HEPES (100 mM choline, 50 mM HEPES, 10 mM glucose, 5 mM KCl, 2 mM CaCl2, 1 mM MgCl2, pH 7.4) and incubated in the same buffer for 10 minutes at room temperature to lower intracellular pH with 0-30 μM test compound. […] Changes in intracellular pH were monitored using a FLIPR Tetra® (Molecular Devices, Sunnyvale, Calif.) by excitation at λex 439 to 505 nm, and measuring BCECF fluorescence at λem 538 nm. The initial rate of the fluorescence ratio change was used as a measure of NHE-mediated Na^+/H^+ activity, and reported as the change in fluorescence ratio per minute. Initial rates were plotted as the average 2 or more replicates, and pIC50 values were estimated using GraphPad Prism.

Compound | FFS (fecal form score) [1] | response vs control in vivo at 10 mg/kg [1] [%] | IC50 (human NHE3) [µM] | % inhibition (human Preincubation assay) (human NHE3)
O=C(NCCCCNC(=O)NCCOCCOCCNS(=O)(=O)c1ccc(O[C@H]2c3cc(Cl)cc(F)c3C[C@@H]2N2CC[C@@H](O)C2)cc1)NCCOCCOCCNS(=O)(=O)c1ccc(O[C@H]2c3cc(Cl)cc(F)c3C[C@@H]2N2CC[C@@H](O)C2)cc1 [Example 4, (S,S,R)—N,N′-(10,17-dioxo-3,6,21,24-tetraoxa-9,11,16,18-tetraazahexacosane-1,26-diyl)bis(4-((1S,2S)-6-chloro-4-fluoro-2-((R)-3-hydroxypyrrolidin-1-yl)-2,3-dihydro-1H-inden-1-yloxy)benzenesulfonamide)] | 1 | > 75 | < 0.1 | C (>70%)
CN(C)[C@H]1Cc2c(Cl)cc(Cl)cc2[C@@H]1Oc1ccc(S(=O)(=O)NCCOCCOCCNC(=O)[C@H](O)[C@@H](O)C(=O)NCCOCCOCCNS(=O)(=O)c2ccc(O[C@H]3c4cc(Cl)cc(Cl)c4C[C@@H]3N(C)C)cc2)cc1 [Example 5, (2R,3R)—N1,N4-bis(2-(2-(2-(4-((1S,2S)-4,6-dichloro-2-(dimethylamino)-2,3-dihydro-1H-inden-1-yloxy)phenylsulfonamido)ethoxy)ethoxy)ethyl)-2,3-dihydroxysuccinamide] | 1 | < 35 | < 0.1 | C (>70%)
O=C(NCCCCNC(=O)NCCOCCOCCNC(=O)Nc1cccc(O[C@H]2c3ccccc3C[C@@H]2N2CCCCC2)c1)NCCOCCOCCNC(=O)Nc1cccc(O[C@H]2c3ccccc3C[C@@H]2N2CCCCC2)c1 [Example 13, 1-{2-[2-(2-{[(3-{[(1S,2S)-2-(piperidin-1-yl)-2,3-dihydro-1H-inden-1-yl]oxy}phenyl)carbamoyl]amino}ethoxy)ethoxy]ethyl}-3-{4-[({2-[2-(2-{[(3-{[(1S,2S)-2-(piperidin-1-yl)-2,3-dihydro-1H-inden-1-yl]oxy}phenyl)carbamoyl]amino}ethoxy)ethoxy]ethyl}carbamoyl)amino]butyl}urea] |  | > 75 | > 1 | C (>70%)
O=C(NCCCCNC(=O)NCCOCCOCCNS(=O)(=O)c1ccc(O[C@H]2c3ccccc3C[C@@H]2N2CCCCC2)cc1)NCCOCCOCCNS(=O)(=O)c1ccc(O[C@H]2c3ccccc3C[C@@H]2N2CCCCC2)cc1 [Example 14] |  | 35 to 75 | < 0.1 | C (>70%)
O=C(NCCCCNC(=O)NCCOCCOCCNS(=O)(=O)c1ccc(O[C@H]2c3cc(Cl)cc(Cl)c3C[C@@H]2N2CCCCC2)cc1)NCCOCCOCCNS(=O)(=O)c1ccc(O[C@H]2c3cc(Cl)cc(Cl)c3C[C@@H]2N2CCCCC2)cc1 [Example 15] |  | 35 to 75 | < 0.1 | B (40-70%)
O=C(NCCCCNC(=O)NCCOCCOCCOCCNS(=O)(=O)c1ccc(O[C@H]2c3ccccc3C[C@@H]2N2CCCCC2)cc1)NCCOCCOCCOCCNS(=O)(=O)c1ccc(O[C@H]2c3ccccc3C[C@@H]2N2CCCCC2)cc1 [Example 16] |  | < 35 | < 0.1 | C (>70%)
CN(C)[C@H]1Cc2ccccc2[C@@H]1Oc1ccc(S(=O)(=O)NCCOCCOCCNC(=O)NCCCCNC(=O)NCCOCCOCCNS(=O)(=O)c2ccc(O[C@H]3c4ccccc4C[C@@H]3N(C)C)cc2)cc1 [Example 20] |  | 35 to 75 | < 0.1 | C (>70%)
CN(C)[C@H]1Cc2ccc(Cl)cc2[C@@H]1Oc1ccc(S(=O)(=O)NCCOCCOCCNC(=O)NCCCCNC(=O)NCCOCCOCCNS(=O)(=O)c2ccc(O[C@H]3c4cc(Cl)ccc4C[C@@H]3N(C)C)cc2)cc1 [Example 21] |  | > 75 | < 0.1 | C (>70%)
CN(C)[C@H]1Cc2ccc(F)cc2[C@@H]1Oc1ccc(S(=O)(=O)NCCOCCOCCNC(=O)NCCCCNC(=O)NCCOCCOCCNS(=O)(=O)c2ccc(O[C@H]3c4cc(F)ccc4C[C@@H]3N(C)C)cc2)cc1 [Example 22] |  | > 75 | < 0.1 | C (>70%)
O=C(NCCCCNC(=O)NCCOCCOCCNS(=O)(=O)c1ccc(O[C@H]2c3cc(F)ccc3C[C@@H]2N2CCCCC2)cc1)NCCOCCOCCNS(=O)(=O)c1ccc(O[C@H]2c3cc(F)ccc3C[C@@H]2N2CCCCC2)cc1 [Example 23] | 1 | > 75 | < 0.1 | C (>70%)
O=C(NCCCCNC(=O)NCCOCCOCCNS(=O)(=O)c1ccc(O[C@H]2c3cc(Cl)cc(F)c3C[C@@H]2N2CCCCC2)cc1)NCCOCCOCCNS(=O)(=O)c1ccc(O[C@H]2c3cc(Cl)cc(F)c3C[C@@H]2N2CCCCC2)cc1 [Example 24] |  | > 75 | < 0.1 | C (>70%)
CN(C)[C@H]1Cc2c(F)cc(Cl)cc2[C@@H]1Oc1ccc(S(=O)(=O)NCCOCCOCCNC(=O)NCCCCNC(=O)NCCOCCOCCNS(=O)(=O)c2ccc(O[C@H]3c4cc(Cl)cc(F)c4C[C@@H]3N(C)C)cc2)cc1 [Example 25] |  | > 75 | < 0.1 | C (>70%)
CN(C)[C@H]1Cc2c(Cl)cc(Cl)cc2[C@@H]1Oc1ccc(S(=O)(=O)NCCOCCOCCNC(=O)C(C)(C)C(=O)NCCOCCOCCNS(=O)(=O)c2ccc(O[C@H]3c4cc(Cl)cc(Cl)c4C[C@@H]3N(C)C)cc2)cc1 [Example 36] | 2 | 35 to 75 | 0.1 to 1 | C (>70%)

Reference: US10376481B2, “Compounds and methods for inhibiting NHE-mediated antiport in the treatment of disorders associated with fluid retention or salt overload and gastrointestinal tract disorders” (ARDELYX, INC, priority 2012, dated 2019)
